Data: ChEMBL document CHEMBL4325912, “Discovery of 2-(1H-imidazo-2-yl)piperazines as a new class of potent and non-cytotoxic inhibitors of Trypanosoma brucei growth in vitro” (Bioorg Med Chem Lett, 2018)
Active and inactive are the calls of the source. No cut-off for these calls is given here.

Assays:
[1] = Cytotoxicity against human HeLa cells assessed as reduction in cell viability after 72 hrs by celltiter glo assay; assay type: cell-based
[2] = test system: Trypanosoma brucei; assay: Antitrypanosomal activity against Trypanosoma brucei Lister 427 bloodstream forms in presence of 10% FBS after 24 hrs by celltiter glo assay; assay type: functional, organism-based; settings: Lister 427, 24 h
[3] = test system: Trypanosoma brucei; assay: Inhibition of Trypanosoma brucei GSK3
[4] = test system: Trypanosoma brucei; assay: Inhibition of Trypanosoma brucei adenosine kinase
[5] = test system: Trypanosoma brucei; assay: Inhibition of Trypanosoma brucei Aurora 1 kinase
[6] = test system: Trypanosoma brucei; assay: Inhibition of Trypanosoma brucei trypanothione reductase
[7] = target: T1, Histone deacetylase 1 (Homo sapiens, UniProt Q13547); assay: Inhibition of human HDAC1 preincubated for 10 mins followed by BML-KI104 substrate addition and measured after 1 hr by spectrophotometric analysis
T1 sequence (Q13547 whole entry): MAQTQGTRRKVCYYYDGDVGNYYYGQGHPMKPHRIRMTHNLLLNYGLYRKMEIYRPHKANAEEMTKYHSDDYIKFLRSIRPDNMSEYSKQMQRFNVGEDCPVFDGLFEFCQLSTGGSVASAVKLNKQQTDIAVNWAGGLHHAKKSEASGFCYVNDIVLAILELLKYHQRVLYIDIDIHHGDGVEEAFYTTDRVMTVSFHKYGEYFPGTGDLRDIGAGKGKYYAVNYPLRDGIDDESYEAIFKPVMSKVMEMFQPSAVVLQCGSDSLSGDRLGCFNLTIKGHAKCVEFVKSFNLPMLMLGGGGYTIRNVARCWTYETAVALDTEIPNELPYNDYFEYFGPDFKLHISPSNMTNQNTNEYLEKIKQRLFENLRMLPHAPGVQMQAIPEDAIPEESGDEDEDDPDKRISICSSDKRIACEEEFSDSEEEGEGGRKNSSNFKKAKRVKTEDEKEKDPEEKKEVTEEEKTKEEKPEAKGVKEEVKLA

[8] = target: T2, Histone deacetylase 2 (Homo sapiens, UniProt Q92769); assay: Inhibition of human HDAC2
T2 sequence (Q92769 whole entry): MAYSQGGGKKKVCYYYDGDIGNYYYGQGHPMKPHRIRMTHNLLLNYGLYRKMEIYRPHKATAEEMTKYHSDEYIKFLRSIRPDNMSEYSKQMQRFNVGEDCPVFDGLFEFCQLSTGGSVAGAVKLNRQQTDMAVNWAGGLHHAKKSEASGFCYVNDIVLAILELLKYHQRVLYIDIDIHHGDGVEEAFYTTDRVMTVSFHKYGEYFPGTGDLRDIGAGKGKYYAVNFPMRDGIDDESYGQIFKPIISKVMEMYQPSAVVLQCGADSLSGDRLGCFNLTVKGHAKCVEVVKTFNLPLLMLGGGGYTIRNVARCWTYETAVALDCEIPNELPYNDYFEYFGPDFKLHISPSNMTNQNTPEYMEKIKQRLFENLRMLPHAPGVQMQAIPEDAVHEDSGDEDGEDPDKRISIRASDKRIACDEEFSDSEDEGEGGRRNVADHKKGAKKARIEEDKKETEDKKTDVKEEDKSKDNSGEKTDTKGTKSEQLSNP

[9] = target: T3, Histone deacetylase 3 (Homo sapiens, UniProt O15379); assay: Inhibition of human HDAC3
T3 sequence (O15379 whole entry): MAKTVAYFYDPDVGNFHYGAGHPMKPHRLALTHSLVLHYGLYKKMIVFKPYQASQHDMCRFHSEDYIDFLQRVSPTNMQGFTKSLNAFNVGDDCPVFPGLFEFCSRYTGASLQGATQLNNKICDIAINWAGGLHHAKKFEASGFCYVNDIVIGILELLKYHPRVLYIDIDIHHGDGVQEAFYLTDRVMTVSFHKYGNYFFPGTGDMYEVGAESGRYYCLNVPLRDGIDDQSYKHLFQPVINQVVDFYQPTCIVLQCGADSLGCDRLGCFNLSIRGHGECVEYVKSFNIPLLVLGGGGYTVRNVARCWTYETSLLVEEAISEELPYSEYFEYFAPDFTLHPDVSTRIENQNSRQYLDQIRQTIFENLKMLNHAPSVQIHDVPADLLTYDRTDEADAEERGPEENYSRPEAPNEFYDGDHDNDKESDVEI

[10] = target: Class 1 histone deacetylase (Homo sapiens, UniProt Q13547+O15379+Q92769+Q9BY41); assay: Inhibition of HDAC class 1 in human HeLa cells after 4 hrs by spectrophotometric analysis; assay type: cell-based
[11] = target: T1, Histone deacetylase 1; assay: Inhibition of human HDAC1 up to 5 uM preincubated for 10 mins followed by BML-KI104 substrate addition and measured after 1 hr by spectrophotometric analysis
[12] = target: T2, Histone deacetylase 2; assay: Inhibition of human HDAC2 up to 5 uM
[13] = target: T3, Histone deacetylase 3; assay: Inhibition of human HDAC3 up to 5 uM
[14] = target: Histone deacetylase 4 (Homo sapiens) (UniProt P56524); assay: Inhibition of human HDAC4 up to 5 uM
Chain of Histone deacetylase 4 (Homo sapiens) (P56524 whole entry): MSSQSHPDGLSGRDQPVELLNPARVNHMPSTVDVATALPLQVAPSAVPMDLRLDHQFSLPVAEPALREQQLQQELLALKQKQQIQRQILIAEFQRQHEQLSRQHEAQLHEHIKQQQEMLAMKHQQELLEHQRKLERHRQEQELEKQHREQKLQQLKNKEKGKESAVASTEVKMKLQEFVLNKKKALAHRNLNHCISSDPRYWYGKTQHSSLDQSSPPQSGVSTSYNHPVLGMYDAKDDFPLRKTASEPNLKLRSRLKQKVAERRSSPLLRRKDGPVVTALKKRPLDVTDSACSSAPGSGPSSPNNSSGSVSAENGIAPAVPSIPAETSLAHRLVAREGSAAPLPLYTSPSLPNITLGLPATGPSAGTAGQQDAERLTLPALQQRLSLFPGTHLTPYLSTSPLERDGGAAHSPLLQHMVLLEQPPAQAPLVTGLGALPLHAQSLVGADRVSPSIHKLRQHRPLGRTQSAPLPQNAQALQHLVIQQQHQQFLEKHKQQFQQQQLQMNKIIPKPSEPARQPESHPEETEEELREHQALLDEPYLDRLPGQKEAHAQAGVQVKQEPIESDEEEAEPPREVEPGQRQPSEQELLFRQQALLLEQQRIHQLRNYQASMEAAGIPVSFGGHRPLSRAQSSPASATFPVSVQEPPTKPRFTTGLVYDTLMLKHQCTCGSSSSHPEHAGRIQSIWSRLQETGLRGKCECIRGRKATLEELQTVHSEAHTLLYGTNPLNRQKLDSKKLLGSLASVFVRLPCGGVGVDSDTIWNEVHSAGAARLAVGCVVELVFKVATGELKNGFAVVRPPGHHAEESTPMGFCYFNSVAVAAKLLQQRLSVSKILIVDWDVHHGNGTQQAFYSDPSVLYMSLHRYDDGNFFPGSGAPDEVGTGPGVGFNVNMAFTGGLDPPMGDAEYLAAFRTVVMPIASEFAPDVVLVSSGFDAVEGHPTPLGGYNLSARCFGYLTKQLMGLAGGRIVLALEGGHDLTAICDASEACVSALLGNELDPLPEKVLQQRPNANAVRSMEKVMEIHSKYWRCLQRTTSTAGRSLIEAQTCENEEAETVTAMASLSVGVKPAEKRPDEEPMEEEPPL

[15] = target: Histone deacetylase 5 (Homo sapiens) (UniProt Q9UQL6); assay: Inhibition of human HDAC5 up to 5 uM
Chain of Histone deacetylase 5 (Homo sapiens) (Q9UQL6 whole entry): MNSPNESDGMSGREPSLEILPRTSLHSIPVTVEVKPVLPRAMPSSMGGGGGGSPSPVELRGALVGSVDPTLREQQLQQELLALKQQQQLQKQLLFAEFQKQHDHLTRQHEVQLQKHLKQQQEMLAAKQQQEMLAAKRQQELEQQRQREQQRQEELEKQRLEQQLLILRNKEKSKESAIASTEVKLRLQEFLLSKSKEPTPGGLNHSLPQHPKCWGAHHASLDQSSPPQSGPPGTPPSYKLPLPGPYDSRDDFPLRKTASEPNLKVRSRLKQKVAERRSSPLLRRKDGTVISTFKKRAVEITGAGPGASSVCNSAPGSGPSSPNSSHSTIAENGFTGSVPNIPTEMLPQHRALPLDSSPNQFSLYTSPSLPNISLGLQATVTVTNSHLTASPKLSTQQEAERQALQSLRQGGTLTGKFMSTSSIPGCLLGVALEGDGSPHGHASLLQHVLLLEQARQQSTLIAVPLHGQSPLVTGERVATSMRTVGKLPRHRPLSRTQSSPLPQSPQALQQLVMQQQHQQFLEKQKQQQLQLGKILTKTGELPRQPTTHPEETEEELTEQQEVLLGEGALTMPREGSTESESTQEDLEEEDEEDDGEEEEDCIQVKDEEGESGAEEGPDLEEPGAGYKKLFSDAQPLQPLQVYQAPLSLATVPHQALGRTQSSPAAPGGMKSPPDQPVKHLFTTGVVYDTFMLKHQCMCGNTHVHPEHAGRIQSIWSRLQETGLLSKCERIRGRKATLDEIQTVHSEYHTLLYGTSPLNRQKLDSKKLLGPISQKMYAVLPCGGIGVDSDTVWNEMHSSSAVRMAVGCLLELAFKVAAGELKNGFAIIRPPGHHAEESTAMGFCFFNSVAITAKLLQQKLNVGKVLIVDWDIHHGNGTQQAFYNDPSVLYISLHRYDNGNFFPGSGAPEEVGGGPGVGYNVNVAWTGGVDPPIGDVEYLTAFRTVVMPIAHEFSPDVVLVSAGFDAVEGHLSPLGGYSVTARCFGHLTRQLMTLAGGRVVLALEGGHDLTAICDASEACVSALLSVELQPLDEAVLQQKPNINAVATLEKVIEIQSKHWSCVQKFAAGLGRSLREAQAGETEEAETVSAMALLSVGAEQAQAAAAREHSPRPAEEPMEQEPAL

[16] = target: T4, Protein deacetylase HDAC6 (Homo sapiens) (UniProt Q9UBN7); assay: Inhibition of human HDAC6 up to 5 uM
T4 sequence (whole entry): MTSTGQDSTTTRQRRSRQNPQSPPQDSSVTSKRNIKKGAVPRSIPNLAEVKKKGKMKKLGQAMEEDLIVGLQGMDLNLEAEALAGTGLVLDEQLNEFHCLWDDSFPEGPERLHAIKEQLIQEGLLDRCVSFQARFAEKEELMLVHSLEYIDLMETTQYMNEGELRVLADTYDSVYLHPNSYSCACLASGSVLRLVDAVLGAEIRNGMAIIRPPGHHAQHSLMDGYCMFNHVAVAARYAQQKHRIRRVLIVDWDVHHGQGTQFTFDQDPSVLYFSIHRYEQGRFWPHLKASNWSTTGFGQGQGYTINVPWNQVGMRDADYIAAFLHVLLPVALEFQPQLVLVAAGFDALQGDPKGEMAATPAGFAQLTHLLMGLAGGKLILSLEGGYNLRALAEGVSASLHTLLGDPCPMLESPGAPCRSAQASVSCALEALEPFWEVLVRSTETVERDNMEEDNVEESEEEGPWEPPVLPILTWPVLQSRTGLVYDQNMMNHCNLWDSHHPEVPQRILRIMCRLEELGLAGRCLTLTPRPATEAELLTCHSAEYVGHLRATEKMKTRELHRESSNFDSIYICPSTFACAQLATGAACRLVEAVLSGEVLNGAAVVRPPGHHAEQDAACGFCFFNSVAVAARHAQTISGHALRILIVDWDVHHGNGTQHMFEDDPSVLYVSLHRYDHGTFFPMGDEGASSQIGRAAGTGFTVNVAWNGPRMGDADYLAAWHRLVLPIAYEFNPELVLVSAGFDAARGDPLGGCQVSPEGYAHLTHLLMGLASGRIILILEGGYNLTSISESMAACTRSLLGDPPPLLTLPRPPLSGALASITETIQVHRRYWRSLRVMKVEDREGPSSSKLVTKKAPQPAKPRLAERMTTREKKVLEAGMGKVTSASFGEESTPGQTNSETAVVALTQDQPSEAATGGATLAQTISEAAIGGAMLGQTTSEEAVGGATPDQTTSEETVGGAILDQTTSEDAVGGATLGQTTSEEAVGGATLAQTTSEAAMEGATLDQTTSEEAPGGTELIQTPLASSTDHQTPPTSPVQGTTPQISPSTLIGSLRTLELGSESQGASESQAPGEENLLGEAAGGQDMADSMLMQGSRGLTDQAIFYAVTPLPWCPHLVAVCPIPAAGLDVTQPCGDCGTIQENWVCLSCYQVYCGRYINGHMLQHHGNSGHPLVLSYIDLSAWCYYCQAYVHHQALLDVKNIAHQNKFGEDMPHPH

[17] = target: T5, Histone deacetylase 7 (Homo sapiens) (UniProt Q8WUI4); assay: Inhibition of human HDAC7 up to 5 uM
T5 sequence (whole entry): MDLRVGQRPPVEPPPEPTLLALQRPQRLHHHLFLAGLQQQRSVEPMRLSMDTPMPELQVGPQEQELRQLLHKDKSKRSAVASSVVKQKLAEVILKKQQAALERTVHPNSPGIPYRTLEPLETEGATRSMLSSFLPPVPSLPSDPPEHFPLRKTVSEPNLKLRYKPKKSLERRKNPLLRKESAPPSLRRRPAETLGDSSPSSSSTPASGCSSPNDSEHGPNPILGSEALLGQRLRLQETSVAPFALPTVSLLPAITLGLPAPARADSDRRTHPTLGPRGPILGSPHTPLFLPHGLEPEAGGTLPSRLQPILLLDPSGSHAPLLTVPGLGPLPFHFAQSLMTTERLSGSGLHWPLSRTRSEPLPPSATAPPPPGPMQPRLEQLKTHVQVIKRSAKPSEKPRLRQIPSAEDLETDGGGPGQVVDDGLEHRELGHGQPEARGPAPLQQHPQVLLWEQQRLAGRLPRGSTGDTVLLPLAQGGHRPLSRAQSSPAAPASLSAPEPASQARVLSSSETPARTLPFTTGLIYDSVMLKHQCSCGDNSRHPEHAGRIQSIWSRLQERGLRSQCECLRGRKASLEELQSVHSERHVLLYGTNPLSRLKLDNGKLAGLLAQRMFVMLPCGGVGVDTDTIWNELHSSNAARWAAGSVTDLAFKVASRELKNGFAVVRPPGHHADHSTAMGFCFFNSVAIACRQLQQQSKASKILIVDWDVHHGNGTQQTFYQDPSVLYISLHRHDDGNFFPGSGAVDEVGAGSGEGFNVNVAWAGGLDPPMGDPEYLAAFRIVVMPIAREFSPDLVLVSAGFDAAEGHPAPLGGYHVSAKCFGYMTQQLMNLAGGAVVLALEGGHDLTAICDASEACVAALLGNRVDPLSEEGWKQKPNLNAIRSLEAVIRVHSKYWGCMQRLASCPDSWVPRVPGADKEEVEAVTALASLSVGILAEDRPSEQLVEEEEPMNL

[18] = target: T6, Histone deacetylase 8 (Homo sapiens) (UniProt Q9BY41); assay: Inhibition of human HDAC8 up to 5 uM
T6 sequence (whole entry): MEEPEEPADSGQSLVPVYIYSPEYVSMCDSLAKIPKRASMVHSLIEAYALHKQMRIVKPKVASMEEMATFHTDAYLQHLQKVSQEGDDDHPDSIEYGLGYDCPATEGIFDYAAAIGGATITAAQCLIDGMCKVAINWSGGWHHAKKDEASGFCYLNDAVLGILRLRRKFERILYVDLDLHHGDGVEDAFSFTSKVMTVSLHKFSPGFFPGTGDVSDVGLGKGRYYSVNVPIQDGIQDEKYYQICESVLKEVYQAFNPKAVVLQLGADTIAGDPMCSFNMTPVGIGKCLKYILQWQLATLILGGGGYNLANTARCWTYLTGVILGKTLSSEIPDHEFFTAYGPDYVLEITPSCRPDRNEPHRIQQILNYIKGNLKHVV

[19] = target: Histone deacetylase 9 (Homo sapiens) (UniProt Q9UKV0); assay: Inhibition of human HDAC9 up to 5 uM
Chain of Histone deacetylase 9 (Homo sapiens) (Q9UKV0 whole entry): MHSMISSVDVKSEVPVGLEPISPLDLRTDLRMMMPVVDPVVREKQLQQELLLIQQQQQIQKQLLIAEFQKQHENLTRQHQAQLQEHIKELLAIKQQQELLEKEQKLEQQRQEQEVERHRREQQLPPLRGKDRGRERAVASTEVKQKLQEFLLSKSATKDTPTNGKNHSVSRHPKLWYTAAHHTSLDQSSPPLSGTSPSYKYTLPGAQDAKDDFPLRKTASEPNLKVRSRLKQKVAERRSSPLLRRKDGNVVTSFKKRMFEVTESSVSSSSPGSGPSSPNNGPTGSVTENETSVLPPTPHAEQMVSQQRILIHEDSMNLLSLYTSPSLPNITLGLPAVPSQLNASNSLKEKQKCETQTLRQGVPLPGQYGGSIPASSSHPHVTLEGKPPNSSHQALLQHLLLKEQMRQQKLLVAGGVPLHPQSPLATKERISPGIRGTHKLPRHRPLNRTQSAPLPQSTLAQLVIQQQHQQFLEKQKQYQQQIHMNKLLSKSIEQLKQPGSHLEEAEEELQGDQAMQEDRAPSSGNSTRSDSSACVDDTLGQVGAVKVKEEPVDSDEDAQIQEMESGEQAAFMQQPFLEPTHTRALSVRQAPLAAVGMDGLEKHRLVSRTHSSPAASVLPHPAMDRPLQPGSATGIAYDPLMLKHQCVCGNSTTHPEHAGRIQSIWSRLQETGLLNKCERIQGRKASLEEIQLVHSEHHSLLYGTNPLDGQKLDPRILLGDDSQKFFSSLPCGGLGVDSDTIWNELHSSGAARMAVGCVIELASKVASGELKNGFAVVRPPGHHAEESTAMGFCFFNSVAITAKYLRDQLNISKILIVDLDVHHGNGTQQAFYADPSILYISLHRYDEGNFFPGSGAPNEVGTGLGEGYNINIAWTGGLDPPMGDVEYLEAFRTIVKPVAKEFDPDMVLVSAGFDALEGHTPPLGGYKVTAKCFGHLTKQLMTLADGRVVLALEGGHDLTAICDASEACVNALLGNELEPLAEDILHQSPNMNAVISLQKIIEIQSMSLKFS

[20] = Half life in human hepatocytes; assay type: ADME, cell-based, Hepatocyte
[21] = Half life in mouse hepatocytes; assay type: ADME, cell-based, Hepatocyte
[22] = test system: Plasmodium falciparum; assay: Antimalarial activity against Plasmodium falciparum 3D7 infected in human erythrocytes after 72 hrs by spectrophotometric analysis; assay type: functional, organism-based; settings: 3D7, 72 h
[23] = test system: Trypanosoma cruzi; assay: Antiparasitic activity against Trypanosoma cruzi; assay type: functional, organism-based
[24] = Selectivity index, ratio of EC50 for Trypanosoma cruzi to EC50 for antitrypanosomal activity against Trypanosoma brucei Lister 427 bloodstream forms; assay type: functional
[25] = Cytotoxicity against HUVEC; assay type: cell-based; settings: human
[26] = Selectivity index, ratio of EC50 for Plasmodium falciparum 3D7 infected in human erythrocytes to EC50 for antitrypanosomal activity against Trypanosoma brucei Lister 427 bloodstream forms; assay type: functional

Compound	CC50 at 72 h [1]	EC50 [2]	also measured
COc1ccc2[nH]c(C)c(CC(=O)N3CCN(C)CC3c3ncc(-c4ccc5ccccc5c4)[nH]3)c2c1 (configuration not stated)	> 25 µM	0.038 µM	inhibition [3]: inactive; inhibition [4]: inactive; inhibition [5]: inactive; inhibition [6]: inactive
COc1ccc2[nH]c(C)c(CC(=O)N3CCN(CC4CC4)CC3c3ncc(-c4ccc5ccccc5c4)[nH]3)c2c1 (configuration not stated)	> 25 µM	0.016 µM	–
CCC(=O)CCCN1CCN(C(=O)Cc2c[nH]c3ncccc23)C(c2ncc(-c3ccc4ccccc4c3)[nH]2)C1 (configuration not stated)	> 25 µM	0.545 µM	–
CCC(=O)CCCN1CCN(C(C)=O)C(c2ncc(-c3ccc4ccccc4c3)[nH]2)C1 (configuration not stated)	> 32 µM	> 25 µM	–
CCC(=O)CCCN1CCN(C(=O)Cc2c[nH]c3ccccc23)C(c2ncc(-c3ccc4ccccc4c3)[nH]2)C1 (configuration not stated)	> 25 µM	0.489 µM	IC50 [7]: > 25 µM; IC50 [8]: > 25 µM; IC50 [9]: > 25 µM; IC50 [10]: > 25 µM
CCC(=O)CCCN1CCN(C(=O)Cc2c[nH]c3ccccc23)[C@@H](c2ncc(-c3ccc4ccccc4c3)[nH]2)C1	> 32 µM	4.36 µM	–
CCC(=O)CCCN1CCN(C(=O)Cc2c(C)[nH]c3ccc(OC)cc23)C(c2ncc(-c3ccc4ccccc4c3)[nH]2)C1 (configuration not stated)	12.3 µM	0.01 µM	inhibition [11]: inactive; inhibition [12]: inactive; inhibition [13]: inactive; inhibition [14]: inactive; inhibition [15]: inactive; inhibition [16]: inactive; inhibition [17]: inactive; inhibition [18]: inactive; inhibition [19]: inactive
COc1ccc2[nH]c(C)c(CC(=O)N3CCN(CCCC(N)=O)CC3c3ncc(-c4ccc5ccccc5c4)[nH]3)c2c1 (configuration not stated)	> 25 µM	0.207 µM	–
CCC(=O)CCCN1CCN(Cc2ccccc2)C(c2ncc(-c3ccc4ccccc4c3)[nH]2)C1 (configuration not stated)	14.7 µM	1.72 µM	–
CCC(=O)CCCN1CCN(C(=O)Cc2c[nH]c3ccccc23)[C@H](c2ncc(-c3ccc4ccccc4c3)[nH]2)C1	> 25 µM	0.423 µM	–
CCC(=O)CCC(=O)N1CCN(C(=O)Cc2c(C)[nH]c3ccc(OC)cc23)C(c2ncc(-c3ccc4ccccc4c3)[nH]2)C1 (configuration not stated)	> 25 µM	0.492 µM	–
CCC(=O)CCCN1CCN(C(=O)Cc2c(C)[nH]c3ccc(OC)cc23)C(c2ncc(-c3ccc4ccccc4c3)o2)C1 (configuration not stated)	20.6 µM	1.26 µM	–
CCC(=O)CCCN1CCN(C(=O)Oc2ccccc2)C(c2ncc(-c3ccc4ccccc4c3)[nH]2)C1 (configuration not stated)	16.6 µM	1.22 µM	–
CCC(=O)CCCN1CCN(S(=O)(=O)c2ccccc2)C(c2ncc(-c3ccc4ccccc4c3)[nH]2)C1 (configuration not stated)	> 25 µM	4.12 µM	–
CCC(=O)CCCN1CCN(C(=O)Nc2ccccc2)C(c2ncc(-c3ccc4ccccc4c3)[nH]2)C1 (configuration not stated)	> 25 µM	1.43 µM	–
CCC(=O)CCCN1CCN(C(=O)c2ccccc2)C(c2ncc(-c3ccc4ccccc4c3)[nH]2)C1 (configuration not stated)	> 32 µM	1.56 µM	–
CNC(=O)CCCN1CCN(C(=O)Cc2c(C)[nH]c3ccc(OC)cc23)C(c2ncc(-c3ccc4ccccc4c3)[nH]2)C1 (configuration not stated)	> 5 µM	0.148 µM	–
COc1ccc2[nH]c(C)c(CC(=O)N3CCN(CCCC(=O)O)CC3c3ncc(-c4ccc5ccccc5c4)[nH]3)c2c1 (configuration not stated)	> 50 µM	1.1 µM	–
COC(=O)CCCN1CCN(C(=O)Cc2c(C)[nH]c3ccc(OC)cc23)C(c2ncc(-c3ccc4ccccc4c3)[nH]2)C1 (configuration not stated)	28.8 µM	0.154 µM	–
CCC(=O)CCCN1CCN(C(=O)Cc2c(C)[nH]c3ccc(OC)cc23)C(c2nnc(-c3ccc4ccccc4c3)o2)C1 (configuration not stated)	> 25 µM	0.304 µM	–
COc1ccc2[nH]c(C)c(CC(=O)N3CCN(CC4CCOC4)CC3c3ncc(-c4ccc5ccccc5c4)[nH]3)c2c1 (mixture of isomers)	> 25 µM	0.005 µM	half-life [20]: 2.4 h; half-life [21]: 0.4 h; EC50 [22]: 3.62 µM; EC50 [23]: 8.12 µM; Ratio EC50 [24]: 1000; CC50 [25]: 18.7 µM; Ratio EC50 [26]: 1000
CCCCCCN1CCN(C(=O)Cc2c(C)[nH]c3ccc(OC)cc23)C(c2ncc(-c3ccc4ccccc4c3)[nH]2)C1 (configuration not stated)	> 25 µM	0.079 µM	–
CCC(=O)CCCN1CCN(C(=O)Cc2ccccc2)C(c2ncc(-c3ccc4ccccc4c3)[nH]2)C1 (configuration not stated)	> 25 µM	1.8 µM	–
COc1ccc2[nH]c(C)c(CC(=O)N3CCN(CCCC(C)O)CC3c3ncc(-c4ccc5ccccc5c4)[nH]3)c2c1 (configuration not stated)	13.1 µM	0.013 µM	–
